Experimental findings from US11564394B2, “Distorted gold (I)-phosphine complexes and methods for use as antifungal agents” (University of Kentucky Research Foundation, priority 2019, dated 2023) are described below.

Assay in all cases: MIC determination (broth microdilution)
Holding throughout (format): cell-based, Candida auris
On the technique in general: Dilution methods test growth across graded concentrations, often in twofold steps.

Assay [1] has as its system C. auris AR Bank # 0384 (strain K). Particulars: Candidozyma auris, strain K = C. auris AR Bank # 0384, MIC-2.
Assay [2] deals with C. auris AR Bank # 0386 (strain V). Particulars: Candidozyma auris, strain V = C. auris AR Bank # 0386, MIC-2.
For assay [3], the system named is C. auris AR Bank # 0389 (strain VIII). Particulars: Candidozyma auris, strain VIII = C. auris AR Bank # 0389, MIC-2.
For assay [4], the system named is C. auris AR Bank # 0388 (strain VII). Particulars: Candidozyma auris, strain VII = C. auris AR Bank # 0388, MIC-2.
For assay [5], the system named is C. auris AR Bank # 0383 (strain III). Particulars: Candidozyma auris, strain III = C. auris AR Bank # 0383, MIC-2.
In assay [6] the test system is C. auris AR Bank # 0381 (strain I). Particulars: Candidozyma auris, strain I = C. auris AR Bank # 0381, MIC-2, optical density at 600 nm.
Assay [7] deals with C. auris AR Bank # 0387 (strain VI). Particulars: Candidozyma auris, strain VI = C. auris AR Bank # 0387, MIC-2.
Assay [8] relates to C. auris AR Bank # 0390 (strain L). Particulars: Candidozyma auris, strain L = C. auris AR Bank # 0390, MIC-2.
For assay [9], the system named is C. auris AR Bank # 0385 (strain IV). Particulars: Candidozyma auris, strain IV = C. auris AR Bank # 0385, MIC-2.
Assay [10] concerns C. auris AR Bank # 0382 (strain II). Particulars: Candidozyma auris, strain II = C. auris AR Bank # 0382, MIC-2.
Setting [11] is: read-out: MIC (MIC-2 for azoles).
[12] abbreviates: read-out: MIC (MIC-2 for azoles, in parentheses).

Structures are written as SMILES. Read-outs that look alike come from different tables or passages of the source.

What is called MIC is the lowest concentration found to suppress growth. For `C[C@@H](c1ncncc1F)[C@](O)(Cn1cncn1)c1ccc(F)cc1F` [VRC, voriconazole], the MIC in [1] (setting [11]) was found to be 0.24 µg/mL; in assay [1] (setting [12]), 0.7 µM; in assay [2] (setting [11]), 3.9 µg/mL; in [2] (setting [12]) it was 11.2 µM; in [3] (setting [11]), 0.98 µg/mL; in assay [3] (setting [12]) it was 2.8 µM. Further, the MIC in [4] (setting [11]) was 0.49 µg/mL; in assay [4] (setting [12]), 1.4 µM; in assay [5] (setting [11]), 1.95 µg/mL; in [5] (setting [12]), 5.6 µM; in assay [6] (setting [11]), 0.06 µg/mL; in assay [6] (setting [12]) it was 0.2 µM. Further, the MIC was found to be 0.06 µg/mL in assay [7] (setting [11]); 0.2 µM in assay [7] (setting [12]); 0.49 µg/mL in assay [8] (setting [11]); 1.4 µM in [8] (setting [12]); 3.9 µg/mL in [9] (setting [11]); 11.2 µM in [9] (setting [12]). Moreover, the values for the MIC in assay [10] (setting [11]) and in assay [10] (setting [12]) were 0.06 µg/mL and 0.2 µM, respectively.
